Laboratory results from PubChem BioAssay AID1963828 (Molecular Pharmacology Branch, DTP, NCI, 2024).

Test system: 991263-137-R1-J2-PDC complex spheroid viability
Experiment: Anticancer human tumor 991263-137-R1-J2-PDC patient-derived colon adenocarcinoma cell line growth inhibition [POLQ]
Settings: for IC50: curve of first compound; for viability, T/C: stronger effect = lower value
Procedure, shortened: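 Three-cell-type spheroids modelling solid tumor plus stroma served as the readout system; POL inhibitors were tested individually and in combination, concentration ranges set by clinical Cmax where known.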

[1] = second compound 0.0316 µM, first compound 0.0316 µM
[2] = second compound 0.0316 µM, first compound 0.1 µM
[3] = second compound 0.0316 µM, first compound 0.316 µM
[4] = second compound 0.0316 µM, first compound 1 µM
[5] = second compound 0.0316 µM, first compound 3.16 µM
[6] = second compound 0.0316 µM, first compound 10 µM
[7] = second compound 0.1 µM, first compound 0.0316 µM
[8] = second compound 0.1 µM, first compound 0.1 µM
[9] = second compound 0.1 µM, first compound 0.316 µM
[10] = second compound 0.1 µM, first compound 1 µM
[11] = second compound 0.1 µM, first compound 3.16 µM
[12] = second compound 0.1 µM, first compound 10 µM
[13] = second compound 0.316 µM, first compound 0.0316 µM
[14] = second compound 0.316 µM, first compound 0.1 µM
[15] = second compound 0.316 µM, first compound 0.316 µM
[16] = second compound 0.316 µM, first compound 1 µM
[17] = second compound 0.316 µM, first compound 3.16 µM
[18] = second compound 0.316 µM, first compound 10 µM
[19] = second compound 1 µM, first compound 0.0316 µM
[20] = second compound 1 µM, first compound 0.1 µM
[21] = second compound 1 µM, first compound 0.316 µM
[22] = second compound 1 µM, first compound 1 µM
[23] = second compound 1 µM, first compound 3.16 µM
[24] = second compound 1 µM, first compound 10 µM
[25] = second compound 3.16 µM, first compound 0.0316 µM
[26] = second compound 3.16 µM, first compound 0.1 µM
[27] = second compound 3.16 µM, first compound 0.316 µM
[28] = second compound 3.16 µM, first compound 1 µM
[29] = second compound 3.16 µM, first compound 3.16 µM
[30] = second compound 3.16 µM, first compound 10 µM
[31] = second compound 10 µM, first compound 0.0316 µM
[32] = second compound 10 µM, first compound 0.1 µM
[33] = second compound 10 µM, first compound 0.316 µM
[34] = second compound 10 µM, first compound 1 µM
[35] = second compound 10 µM, first compound 3.16 µM
[36] = second compound 10 µM, first compound 10 µM
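Also: spheroids exposed to compounds for 7 days before readout.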
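For viability, T/C in this document: 100% = DMSO vehicle control viability.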

## C=CC(=O)N1CCN(c2nc(=O)n(-c3c(C)ccnc3C(C)C)c3nc(-c4c(O)cccc4F)c(F)cc23)C(C)C1 (stereo unspecified) + Nc1ccc(C#CCN(C(=O)Cc2ncc(C(F)(F)F)cc2C(F)(F)F)c2ccc(F)cc2)nn1
Second compound 0.0316 µM
  IC50: > 10 µM
Second compound 0.1 µM
  IC50: > 10 µM
Second compound 0.316 µM
  IC50: > 10 µM
Second compound 1 µM
  IC50: > 10 µM
Second compound 3.16 µM
  IC50: > 10 µM
Second compound 10 µM
  IC50: > 10 µM
[1]
  viability, T/C: 108%
[2]
  viability, T/C: 100%
[3]
  viability, T/C: 99.3%
[4]
  viability, T/C: 96.5%
[5]
  viability, T/C: 109%
[6]
  viability, T/C: 116%
[7]
  viability, T/C: 102%
[8]
  viability, T/C: 104%
[9]
  viability, T/C: 114%
[10]
  viability, T/C: 98%
[11]
  viability, T/C: 117%
[12]
  viability, T/C: 105%
[13]
  viability, T/C: 104%
[14]
  viability, T/C: 105%
[15]
  viability, T/C: 102%
[16]
  viability, T/C: 96.7%
[17]
  viability, T/C: 113%
[18]
  viability, T/C: 106%
[19]
  viability, T/C: 110%
[20]
  viability, T/C: 105%
[21]
  viability, T/C: 107%
[22]
  viability, T/C: 97.7%
[23]
  viability, T/C: 107%
[24]
  viability, T/C: 100%
[25]
  viability, T/C: 94.5%
[26]
  viability, T/C: 85.6%
[27]
  viability, T/C: 102%
[28]
  viability, T/C: 102%
[29]
  viability, T/C: 106%
[30]
  viability, T/C: 110%
[31]
  viability, T/C: 96.6%
[32]
  viability, T/C: 107%
[33]
  viability, T/C: 90.6%
[34]
  viability, T/C: 117%
[35]
  viability, T/C: 99.8%
[36]
  viability, T/C: 100%

## CC(C)n1c(=O)n(C)c2cnc3cc(F)c(-c4ccc(OCCCN5CCCCC5)nc4)cc3c21 + Nc1ccc(C#CCN(C(=O)Cc2ncc(C(F)(F)F)cc2C(F)(F)F)c2ccc(F)cc2)nn1
Second compound 0.0316 µM
  IC50: > 10 µM
Second compound 0.1 µM
  IC50: > 10 µM
Second compound 0.316 µM
  IC50: > 10 µM
Second compound 1 µM
  IC50: > 10 µM
Second compound 3.16 µM
  IC50: > 10 µM
Second compound 10 µM
  IC50: > 10 µM
[1]
  viability, T/C: 96.6%
[2]
  viability, T/C: 109%
[3]
  viability, T/C: 111%
[4]
  viability, T/C: 121%
[5]
  viability, T/C: 98.8%
[6]
  viability, T/C: 111%
[7]
  viability, T/C: 103%
[8]
  viability, T/C: 99.8%
[9]
  viability, T/C: 102%
[10]
  viability, T/C: 121%
[11]
  viability, T/C: 101%
[12]
  viability, T/C: 85.8%
[13]
  viability, T/C: 104%
[14]
  viability, T/C: 99.4%
[15]
  viability, T/C: 101%
[16]
  viability, T/C: 110%
[17]
  viability, T/C: 103%
[18]
  viability, T/C: 111%
[19]
  viability, T/C: 105%
[20]
  viability, T/C: 100%
[21]
  viability, T/C: 105%
[22]
  viability, T/C: 104%
[23]
  viability, T/C: 95.5%
[24]
  viability, T/C: 90.1%
[25]
  viability, T/C: 90.7%
[26]
  viability, T/C: 97.7%
[27]
  viability, T/C: 106%
[28]
  viability, T/C: 118%
[29]
  viability, T/C: 111%
[30]
  viability, T/C: 105%
[31]
  viability, T/C: 99%
[32]
  viability, T/C: 96.2%
[33]
  viability, T/C: 112%
[34]
  viability, T/C: 94.5%
[35]
  viability, T/C: 93.5%
[36]
  viability, T/C: 101%

## CC1COCCN1c1cc(-c2ccnn2C)c2ccnc(-c3ccn[nH]3)c2n1 (stereo unspecified) + Nc1ccc(C#CCN(C(=O)Cc2ncc(C(F)(F)F)cc2C(F)(F)F)c2ccc(F)cc2)nn1
Second compound 0.0316 µM
  IC50: 1.14 µM
Second compound 0.1 µM
  IC50: 1.61 µM
Second compound 0.316 µM
  IC50: 1.15 µM
Second compound 1 µM
  IC50: 1.4 µM
Second compound 3.16 µM
  IC50: 1.11 µM
Second compound 10 µM
  IC50: 0.918 µM
[1]
  viability, T/C: 105%
[2]
  viability, T/C: 93.8%
[3]
  viability, T/C: 75.6%
[4]
  viability, T/C: 50.6%
[5]
  viability, T/C: 38.6%
[6]
  viability, T/C: 32.5%
[7]
  viability, T/C: 105%
[8]
  viability, T/C: 88.7%
[9]
  viability, T/C: 69.5%
[10]
  viability, T/C: 58.4%
[11]
  viability, T/C: 39.9%
[12]
  viability, T/C: 32.5%
[13]
  viability, T/C: 99.4%
[14]
  viability, T/C: 107%
[15]
  viability, T/C: 74.4%
[16]
  viability, T/C: 53.7%
[17]
  viability, T/C: 40.6%
[18]
  viability, T/C: 32%
[19]
  viability, T/C: 108%
[20]
  viability, T/C: 94%
[21]
  viability, T/C: 75.5%
[22]
  viability, T/C: 53.4%
[23]
  viability, T/C: 40.4%
[24]
  viability, T/C: 31.1%
[25]
  viability, T/C: 103%
[26]
  viability, T/C: 95.8%
[27]
  viability, T/C: 72.5%
[28]
  viability, T/C: 53%
[29]
  viability, T/C: 35.8%
[30]
  viability, T/C: 31.1%
[31]
  viability, T/C: 93.9%
[32]
  viability, T/C: 88.2%
[33]
  viability, T/C: 73%
[34]
  viability, T/C: 46.2%
[35]
  viability, T/C: 42.6%
[36]
  viability, T/C: 33.8%
